Laboratory results as given in ChEMBL document CHEMBL4145544, “Discovery and optimization of 1-(1H-indol-1-yl)ethanone derivatives as CBP/EP300 bromodomain inhibitors for the treatment of castration-resistant prostate cancer” (Eur J Med Chem, 2018).
Active and inactive are the calls of the source. The rule behind the calls is not given here.

How the values were obtained:
[1] = target: T1, Bromodomain-containing protein 9 (Homo sapiens, UniProt Q9H8M2); experiment: Inhibition of biotinylated-H4KAc4 binding to human His6-tagged BRD9 (L14 to Q134 residues) expressed in Escherichia coli BL21(DE3) after 2.5 hrs by luminescence-based AlphaScreen assay
T1 sequence (Q9H8M2 whole entry): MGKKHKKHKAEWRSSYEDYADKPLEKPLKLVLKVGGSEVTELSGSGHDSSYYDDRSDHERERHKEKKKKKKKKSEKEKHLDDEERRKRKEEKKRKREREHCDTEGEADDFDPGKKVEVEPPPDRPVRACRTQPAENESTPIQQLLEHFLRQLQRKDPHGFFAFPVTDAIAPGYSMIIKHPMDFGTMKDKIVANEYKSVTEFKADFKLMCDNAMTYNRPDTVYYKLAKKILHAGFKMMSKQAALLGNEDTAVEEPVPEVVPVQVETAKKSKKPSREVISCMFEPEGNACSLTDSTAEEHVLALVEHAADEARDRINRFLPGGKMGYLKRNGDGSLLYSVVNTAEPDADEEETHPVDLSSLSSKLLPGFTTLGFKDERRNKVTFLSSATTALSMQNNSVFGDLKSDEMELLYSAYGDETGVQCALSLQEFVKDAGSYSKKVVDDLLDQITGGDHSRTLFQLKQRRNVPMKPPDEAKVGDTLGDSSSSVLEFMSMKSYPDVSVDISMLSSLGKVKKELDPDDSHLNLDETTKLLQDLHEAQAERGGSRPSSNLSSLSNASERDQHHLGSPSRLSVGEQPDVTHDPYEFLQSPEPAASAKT

[2] = target: T2, Transcription initiation factor TFIID subunit 1 (Homo sapiens, UniProt P21675); experiment: Inhibition of biotinylated-H4KAc4 binding to human His6-tagged TAF-1 (R1377 to D1503 residues) expressed in Escherichia coli BL21(DE3) after 2.5 hrs by luminescence-based AlphaScreen assay
CWR22R [3] = tested on: CWR22R
Description: (§1) Antiproliferative activity against human 22Rv1 cells after 72 hrs by Cell-Titer Glo assay

[4] = target: T3, Bromodomain-containing protein 4 (Homo sapiens, UniProt O60885); experiment: Binding affinity to human His6-tagged BRD4 bromodomain-1 (N44 to E168 residues) expressed in Escherichia coli BL21(DE3) assessed as change in melting temperature at 200 uM after 30 mins by SYPRO orange dye based fluorescence assay
[5] = target: T4, Histone acetyltransferase p300 (Homo sapiens, UniProt Q09472); experiment: Inhibition of biotinylated-H4KAc4 binding to human His6-tagged EP300 (A1040 to G1161 residues) expressed in Escherichia coli BL21(DE3) after 2.5 hrs by luminescence-based AlphaScreen assay
[6] = target: T5, Bromodomain adjacent to zinc finger domain protein 2B (Homo sapiens, UniProt Q9UIF8); experiment: Binding affinity to human His6-tagged BAZ2B (S1858 to S1972 residues) expressed in Escherichia coli BL21(DE3) assessed as change in melting temperature at 200 uM after 30 mins by SYPRO orange dye based fluorescence assay
[7] = target: Bromodomain-containing protein 9 (Homo sapiens) (UniProt Q9H8M2); experiment: Binding affinity to human His6-tagged BRD9 (L14 to Q134 residues) expressed in Escherichia coli BL21(DE3) assessed as change in melting temperature at 200 uM after 30 mins by SYPRO orange dye based fluorescence assay
LNCaP C4-2B = experiment: Anticlonogenic activity against human C4-2B cells after 14 days by crystal violet staining based assay; assay type: functional, cell-based
CREB-binding protein [8] = target: T6, CREB-binding protein (Homo sapiens, UniProt Q92793); experiment: Inhibition of biotinylated-H4KAc4 binding to human His6-tagged CBP (R1081 to G1197 residues) expressed in Escherichia coli BL21(DE3) after 2.5 hrs by luminescence-based AlphaScreen assay
LNCaP [9] = experiment: Antiproliferative activity against human LNCAP cells after 72 hrs by Cell-Titer Glo assay; assay type: functional, cell-based
CREB-binding protein [10] = target: T6, CREB-binding protein; experiment: Binding affinity to human His6-tagged CBP (R1081 to G1197 residues) expressed in Escherichia coli BL21(DE3) assessed as change in melting temperature at 200 uM after 30 mins by SYPRO orange dye based fluorescence assay
[11] = target: T2, Transcription initiation factor TFIID subunit 1; experiment: Binding affinity to human His6-tagged TAF-1 (R1377 to D1503 residues) expressed in Escherichia coli BL21(DE3) assessed as change in melting temperature at 200 uM after 30 mins by SYPRO orange dye based fluorescence assay
[12] = target: T7, Histone acetyltransferase KAT2B (Homo sapiens, UniProt Q92831); experiment: Binding affinity to human His6-tagged PCAF (G715 to D831 residues) expressed in Escherichia coli BL21(DE3) assessed as change in melting temperature at 200 uM after 30 mins by SYPRO orange dye based fluorescence assay
[13] = target: T3, Bromodomain-containing protein 4; experiment: Inhibition of biotinylated-H4KAc4 binding to human His6-tagged BRD4 bromodomain-1 (N44 to E168 residues) expressed in Escherichia coli BL21(DE3) after 2.5 hrs by luminescence-based AlphaScreen assay
[14] = target: T5, Bromodomain adjacent to zinc finger domain protein 2B; experiment: Inhibition of biotinylated-H4KAc4 binding to human His6-tagged BAZ2B (S1858 to S1972 residues) expressed in Escherichia coli BL21(DE3) after 2.5 hrs by luminescence-based AlphaScreen assay
[15] = target: T8, Transcription intermediary factor 1-alpha (Homo sapiens, UniProt O15164); experiment: Inhibition of biotinylated-H4KAc4 binding to human His6-tagged TIF-1 (G896 to E1014 residues) expressed in Escherichia coli BL21(DE3) after 2.5 hrs by luminescence-based AlphaScreen assay
T8 sequence (O15164 whole entry): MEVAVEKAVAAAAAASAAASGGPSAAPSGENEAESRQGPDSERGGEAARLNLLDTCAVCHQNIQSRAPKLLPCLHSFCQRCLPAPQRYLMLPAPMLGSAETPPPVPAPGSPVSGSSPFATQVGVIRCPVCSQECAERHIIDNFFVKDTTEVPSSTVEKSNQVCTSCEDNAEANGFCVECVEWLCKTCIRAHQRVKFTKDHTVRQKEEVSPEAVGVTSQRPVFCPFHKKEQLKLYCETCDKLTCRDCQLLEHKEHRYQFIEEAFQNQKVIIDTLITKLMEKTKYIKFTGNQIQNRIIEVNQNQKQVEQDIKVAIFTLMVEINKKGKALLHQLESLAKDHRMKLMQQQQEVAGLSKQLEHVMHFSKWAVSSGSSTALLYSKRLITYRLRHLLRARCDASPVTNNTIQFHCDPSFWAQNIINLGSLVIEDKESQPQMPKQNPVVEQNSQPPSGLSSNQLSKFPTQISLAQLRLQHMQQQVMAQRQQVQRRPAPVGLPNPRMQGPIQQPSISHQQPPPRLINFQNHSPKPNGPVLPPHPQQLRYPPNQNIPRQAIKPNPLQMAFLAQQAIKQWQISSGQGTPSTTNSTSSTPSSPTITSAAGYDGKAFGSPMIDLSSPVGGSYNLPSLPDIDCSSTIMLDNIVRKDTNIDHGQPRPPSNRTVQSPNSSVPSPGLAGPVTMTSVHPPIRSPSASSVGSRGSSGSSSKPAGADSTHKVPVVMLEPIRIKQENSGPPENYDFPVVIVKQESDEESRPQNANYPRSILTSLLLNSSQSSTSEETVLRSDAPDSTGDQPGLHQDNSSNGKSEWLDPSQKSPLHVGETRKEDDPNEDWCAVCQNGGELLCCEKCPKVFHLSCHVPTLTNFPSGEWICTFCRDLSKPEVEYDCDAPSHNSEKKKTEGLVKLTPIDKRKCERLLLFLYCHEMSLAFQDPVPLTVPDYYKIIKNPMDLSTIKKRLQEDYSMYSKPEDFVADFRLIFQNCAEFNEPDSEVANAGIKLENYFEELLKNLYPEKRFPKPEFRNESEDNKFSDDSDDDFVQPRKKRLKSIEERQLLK

[16] = target: T4, Histone acetyltransferase p300; experiment: Binding affinity to human His6-tagged EP300 (A1040 to G1161 residues) expressed in Escherichia coli BL21(DE3) assessed as change in melting temperature at 200 uM after 30 mins by SYPRO orange dye based fluorescence assay
CWR22R [17] = experiment: Anticlonogenic activity against human 22Rv1 cells after 14 days by crystal violet staining based assay; assay type: functional, cell-based
[18] = target: T7, Histone acetyltransferase KAT2B; experiment: Inhibition of biotinylated-H4KAc4 binding to human His6-tagged PCAF (G715 to D831 residues) expressed in Escherichia coli BL21(DE3) after 2.5 hrs by luminescence-based AlphaScreen assay
Target sequence in this assay (Q92831 whole entry, the tested form may be a part): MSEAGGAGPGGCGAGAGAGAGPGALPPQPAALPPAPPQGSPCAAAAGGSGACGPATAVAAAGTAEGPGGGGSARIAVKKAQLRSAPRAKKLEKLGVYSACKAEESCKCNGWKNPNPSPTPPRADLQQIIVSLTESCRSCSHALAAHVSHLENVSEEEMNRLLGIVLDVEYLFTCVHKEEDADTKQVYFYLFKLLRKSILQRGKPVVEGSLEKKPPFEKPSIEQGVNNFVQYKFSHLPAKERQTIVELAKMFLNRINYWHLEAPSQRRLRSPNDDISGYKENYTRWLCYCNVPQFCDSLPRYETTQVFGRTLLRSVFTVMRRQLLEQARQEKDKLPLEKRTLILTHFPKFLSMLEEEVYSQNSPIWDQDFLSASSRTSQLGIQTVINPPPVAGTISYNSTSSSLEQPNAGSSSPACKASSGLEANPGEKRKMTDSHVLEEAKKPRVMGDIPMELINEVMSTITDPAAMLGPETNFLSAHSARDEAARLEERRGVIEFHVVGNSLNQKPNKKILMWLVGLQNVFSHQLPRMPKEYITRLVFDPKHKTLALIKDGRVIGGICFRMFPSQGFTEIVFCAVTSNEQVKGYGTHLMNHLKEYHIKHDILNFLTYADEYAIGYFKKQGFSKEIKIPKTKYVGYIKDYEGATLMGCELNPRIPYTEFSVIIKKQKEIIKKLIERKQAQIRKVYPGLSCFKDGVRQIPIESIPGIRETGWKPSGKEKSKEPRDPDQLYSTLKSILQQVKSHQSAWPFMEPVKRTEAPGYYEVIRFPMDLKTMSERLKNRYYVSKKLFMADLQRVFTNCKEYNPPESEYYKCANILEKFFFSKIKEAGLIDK

[19] = target: Transcription intermediary factor 1-alpha (Homo sapiens) (UniProt O15164); experiment: Binding affinity to human His6-tagged TIF-1 (G896 to E1014 residues) expressed in Escherichia coli BL21(DE3) assessed as change in melting temperature at 200 uM after 30 mins by SYPRO orange dye based fluorescence assay
[20] = target: T5, Bromodomain adjacent to zinc finger domain protein 2B; experiment: Inhibition of biotinylated-H4KAc4 binding to human His6-tagged BAZ2B (S1858 to S1972 residues) expressed in Escherichia coli BL21(DE3) at 50 uM after 2.5 hrs by luminescence-based AlphaScreen assay relative to control
[21] = target: T3, Bromodomain-containing protein 4; experiment: Inhibition of biotinylated-H4KAc4 binding to human His6-tagged BRD4 bromodomain-1 (N44 to E168 residues) expressed in Escherichia coli BL21(DE3) at 50 uM after 2.5 hrs by luminescence-based AlphaScreen assay relative to control
CWR22R [22] = experiment: Potency index, ratio of enzalutamide IC50 to compound IC50 for antiproliferative activity against human 22Rv1 cells; assay type: functional
LNCaP [23] = experiment: Potency index, ratio of enzalutamide IC50 to compound IC50 for antiproliferative activity against human LNCAP cells; assay type: functional
CWR22R [24] = experiment: cells; conditions: Homo sapiens, 22Rv1, 72 h
Description: as §1

[25] = Homo sapiens, LNCaP, 72 h, read-out: IC50

T2 sequence (P21675 whole entry, the tested form may be a part): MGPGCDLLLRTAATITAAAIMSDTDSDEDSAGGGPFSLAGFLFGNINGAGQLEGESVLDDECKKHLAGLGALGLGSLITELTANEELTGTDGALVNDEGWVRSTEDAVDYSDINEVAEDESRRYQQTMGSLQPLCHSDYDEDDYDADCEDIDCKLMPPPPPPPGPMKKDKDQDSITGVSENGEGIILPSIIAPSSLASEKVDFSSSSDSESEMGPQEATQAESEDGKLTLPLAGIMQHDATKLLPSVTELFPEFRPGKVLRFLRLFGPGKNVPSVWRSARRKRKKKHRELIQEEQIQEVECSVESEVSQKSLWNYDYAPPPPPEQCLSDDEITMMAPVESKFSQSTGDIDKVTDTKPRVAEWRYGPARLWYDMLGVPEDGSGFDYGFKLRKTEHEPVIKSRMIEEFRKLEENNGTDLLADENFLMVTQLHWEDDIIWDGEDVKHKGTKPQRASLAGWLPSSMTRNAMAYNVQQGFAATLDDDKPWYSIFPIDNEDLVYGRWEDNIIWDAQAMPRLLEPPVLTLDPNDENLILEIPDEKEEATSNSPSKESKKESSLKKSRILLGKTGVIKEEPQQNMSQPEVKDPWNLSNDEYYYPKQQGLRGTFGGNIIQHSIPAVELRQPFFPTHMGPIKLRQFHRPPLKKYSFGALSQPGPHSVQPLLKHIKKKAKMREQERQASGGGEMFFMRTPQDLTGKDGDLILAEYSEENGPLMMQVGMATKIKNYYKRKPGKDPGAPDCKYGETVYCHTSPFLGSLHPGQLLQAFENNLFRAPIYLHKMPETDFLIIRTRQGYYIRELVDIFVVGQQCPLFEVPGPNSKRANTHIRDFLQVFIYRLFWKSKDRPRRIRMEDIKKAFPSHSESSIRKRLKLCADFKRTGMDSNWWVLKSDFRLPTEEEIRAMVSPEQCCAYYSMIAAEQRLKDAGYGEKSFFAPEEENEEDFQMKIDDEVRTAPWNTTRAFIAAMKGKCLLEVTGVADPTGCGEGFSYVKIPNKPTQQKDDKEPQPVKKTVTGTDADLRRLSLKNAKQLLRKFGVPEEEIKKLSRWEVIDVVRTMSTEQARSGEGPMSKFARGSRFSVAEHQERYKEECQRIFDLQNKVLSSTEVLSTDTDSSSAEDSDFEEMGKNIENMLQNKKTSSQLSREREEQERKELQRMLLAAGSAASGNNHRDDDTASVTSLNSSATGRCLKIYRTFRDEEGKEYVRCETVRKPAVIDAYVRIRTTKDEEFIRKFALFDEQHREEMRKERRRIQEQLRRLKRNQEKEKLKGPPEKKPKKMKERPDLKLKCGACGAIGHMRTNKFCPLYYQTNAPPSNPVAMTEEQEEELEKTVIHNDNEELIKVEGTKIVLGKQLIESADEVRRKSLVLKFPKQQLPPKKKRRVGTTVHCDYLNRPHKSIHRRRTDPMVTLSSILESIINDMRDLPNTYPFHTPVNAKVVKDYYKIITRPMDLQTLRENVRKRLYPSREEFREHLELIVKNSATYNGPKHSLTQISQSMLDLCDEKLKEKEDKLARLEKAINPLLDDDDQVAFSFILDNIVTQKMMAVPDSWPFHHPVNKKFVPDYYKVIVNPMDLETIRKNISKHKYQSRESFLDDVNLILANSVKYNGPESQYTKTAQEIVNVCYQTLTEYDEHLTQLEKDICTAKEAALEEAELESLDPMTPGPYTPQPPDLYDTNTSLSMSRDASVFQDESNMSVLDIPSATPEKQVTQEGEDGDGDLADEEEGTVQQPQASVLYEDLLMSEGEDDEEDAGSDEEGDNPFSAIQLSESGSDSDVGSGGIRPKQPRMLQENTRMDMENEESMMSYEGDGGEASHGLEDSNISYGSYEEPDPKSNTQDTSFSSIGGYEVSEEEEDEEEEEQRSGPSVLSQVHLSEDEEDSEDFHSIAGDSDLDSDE
T4 sequence (Q09472 whole entry, the tested form may be a part): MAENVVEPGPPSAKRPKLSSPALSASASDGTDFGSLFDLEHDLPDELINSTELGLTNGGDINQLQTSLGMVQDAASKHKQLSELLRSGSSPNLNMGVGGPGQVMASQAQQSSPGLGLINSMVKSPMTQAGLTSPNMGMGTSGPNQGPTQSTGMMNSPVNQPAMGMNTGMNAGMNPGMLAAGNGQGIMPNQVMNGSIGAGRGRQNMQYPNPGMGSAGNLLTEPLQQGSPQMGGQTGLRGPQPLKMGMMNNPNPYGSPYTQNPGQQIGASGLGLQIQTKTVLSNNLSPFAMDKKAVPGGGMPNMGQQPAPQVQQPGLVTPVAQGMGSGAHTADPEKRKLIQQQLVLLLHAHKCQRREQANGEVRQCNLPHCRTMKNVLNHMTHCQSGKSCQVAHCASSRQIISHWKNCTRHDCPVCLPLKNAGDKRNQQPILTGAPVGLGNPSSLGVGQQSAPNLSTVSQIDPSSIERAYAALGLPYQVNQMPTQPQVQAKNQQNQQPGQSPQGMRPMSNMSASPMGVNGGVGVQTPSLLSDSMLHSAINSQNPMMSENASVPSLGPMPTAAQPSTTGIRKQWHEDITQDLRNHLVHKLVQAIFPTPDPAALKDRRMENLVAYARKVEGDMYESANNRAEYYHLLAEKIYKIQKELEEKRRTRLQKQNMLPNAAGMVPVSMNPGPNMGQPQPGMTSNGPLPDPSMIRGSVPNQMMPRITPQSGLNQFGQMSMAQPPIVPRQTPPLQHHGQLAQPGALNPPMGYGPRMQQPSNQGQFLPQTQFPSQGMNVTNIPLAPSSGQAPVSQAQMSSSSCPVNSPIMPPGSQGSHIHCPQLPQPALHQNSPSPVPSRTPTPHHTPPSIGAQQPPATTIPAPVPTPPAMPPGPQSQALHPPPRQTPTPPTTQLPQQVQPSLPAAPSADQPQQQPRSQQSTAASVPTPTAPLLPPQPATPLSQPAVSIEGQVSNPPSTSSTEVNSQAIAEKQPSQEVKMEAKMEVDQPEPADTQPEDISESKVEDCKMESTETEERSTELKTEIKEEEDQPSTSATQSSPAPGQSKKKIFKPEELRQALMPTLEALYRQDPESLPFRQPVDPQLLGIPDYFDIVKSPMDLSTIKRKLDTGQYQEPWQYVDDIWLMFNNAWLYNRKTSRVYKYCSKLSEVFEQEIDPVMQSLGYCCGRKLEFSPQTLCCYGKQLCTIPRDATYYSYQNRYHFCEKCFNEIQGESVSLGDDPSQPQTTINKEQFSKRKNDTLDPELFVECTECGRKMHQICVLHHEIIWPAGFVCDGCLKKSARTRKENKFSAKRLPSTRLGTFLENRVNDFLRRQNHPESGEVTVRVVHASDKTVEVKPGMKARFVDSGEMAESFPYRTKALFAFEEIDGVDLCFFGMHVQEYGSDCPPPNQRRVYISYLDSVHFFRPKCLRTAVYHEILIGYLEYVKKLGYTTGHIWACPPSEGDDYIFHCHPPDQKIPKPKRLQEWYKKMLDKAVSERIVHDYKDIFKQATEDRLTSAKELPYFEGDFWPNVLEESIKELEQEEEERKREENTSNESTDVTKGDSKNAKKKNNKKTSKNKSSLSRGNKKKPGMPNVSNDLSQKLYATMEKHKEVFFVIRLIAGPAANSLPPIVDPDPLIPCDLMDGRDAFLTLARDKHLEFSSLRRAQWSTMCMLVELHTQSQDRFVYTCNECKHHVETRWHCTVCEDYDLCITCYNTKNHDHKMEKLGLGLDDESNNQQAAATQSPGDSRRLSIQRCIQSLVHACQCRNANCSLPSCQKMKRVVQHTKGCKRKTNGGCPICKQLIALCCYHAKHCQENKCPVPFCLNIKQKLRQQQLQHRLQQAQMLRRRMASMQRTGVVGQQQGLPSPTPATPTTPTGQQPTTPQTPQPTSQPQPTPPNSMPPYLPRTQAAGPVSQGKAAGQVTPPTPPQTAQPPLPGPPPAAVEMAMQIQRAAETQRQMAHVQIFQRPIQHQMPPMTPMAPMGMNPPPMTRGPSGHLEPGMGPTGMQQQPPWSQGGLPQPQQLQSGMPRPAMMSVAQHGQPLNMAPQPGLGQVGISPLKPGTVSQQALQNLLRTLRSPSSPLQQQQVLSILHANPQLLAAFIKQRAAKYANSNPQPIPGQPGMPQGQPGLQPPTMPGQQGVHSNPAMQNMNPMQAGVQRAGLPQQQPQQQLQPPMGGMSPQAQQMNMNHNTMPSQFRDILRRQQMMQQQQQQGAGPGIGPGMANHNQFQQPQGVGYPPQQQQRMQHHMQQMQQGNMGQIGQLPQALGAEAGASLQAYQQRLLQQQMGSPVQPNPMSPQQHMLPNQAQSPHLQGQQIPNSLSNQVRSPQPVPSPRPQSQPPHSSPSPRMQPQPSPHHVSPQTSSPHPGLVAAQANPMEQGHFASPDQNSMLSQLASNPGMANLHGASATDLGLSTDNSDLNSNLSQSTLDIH

Compound | IC50 [1] [µM] | IC50 [2] [µM] | IC50 (CWR22R [3]) | IC50 [5] [µM] | IC50 (CREB-binding protein [8]) [µM] | IC50 (LNCaP [9]; lncap) | IC50 [13] [µM] | IC50 [14] [µM] | IC50 [15] [µM] | IC50 [18] [µM] | further results
COc1ccc2c(c1)c(C(=O)Nc1cc(C(=O)O)cc(-c3cnn(C)c3)c1F)cn2C(C)=O | > 20 | > 20 | Not Active | 0.049 | 0.037 | Not Active | > 20 | > 20 | > 20 | > 20 | ΔTm [4]: 1.2 °C; ΔTm [6]: 0.3 °C; ΔTm [7]: 0.9 °C; Activity (LNCaP C4-2B): inactive; ΔTm (CREB-binding protein [10]): 8.7 °C; ΔTm [11]: 0.6 °C; ΔTm [12]: -0.3 °C; ΔTm [16]: 7.2 °C; Activity (CWR22R [17]): inactive; ΔTm [19]: 0 °C
CC(=O)n1cc(C(=O)Nc2cc(COC3CCCCO3)cc(C(=O)O)c2)c2ccccc21 (configuration not stated) | > 20 | > 20 | – | 2.51 | 1 | – | > 20 | > 20 | > 20 | > 20 | –
CNC(=O)c1ccc(N2C(=S)N(c3ccc(C#N)c(C(F)(F)F)c3)C(=O)C2(C)C)cc1F [ENZALUTAMIDE] | – | – | – | – | – | – | – | – | – | – | IC50 (LNCaP [9]; [25]): 33.8 µM
COc1ccc2c(c1)c(C(=O)Nc1cc(C(=O)O)cc(-c3ccco3)c1)cn2C(C)=O | > 20 | > 20 | Not Active | 1.78 | 0.14 | Not Active | > 20 | 12.2 | > 20 | > 20 | –
COc1ccc(CCc2nc3cc(-c4c(C)noc4C)ccc3n2C[C@H](C)N2CCOCC2)cc1Cl | > 20 | > 20 | Not Active | – | – | Not Active | > 20 | > 20 | > 20 | > 20 | inhibition [20]: 41%; inhibition [21]: 62%
CC(=O)n1cc(C(=O)Nc2cccc(C(=O)O)c2)c2ccccc21 | > 20 | > 20 | – | 5.55 | 1.69 | – | > 20 | > 20 | > 20 | > 20 | –
CC(=O)n1cc(C(=O)Nc2cc(C(=O)O)ccc2F)c2ccccc21 | > 20 | > 20 | – | 4.45 | 0.77 | – | > 20 | > 20 | > 20 | > 20 | –
CC(=O)n1cc(C(=O)Nc2cc(C(=O)O)cc(-c3ccco3)c2)c2ccccc21 | > 20 | > 20 | – | 0.97 | 0.65 | – | 2.19 | 1.69 | 10.4 | > 20 | –
COc1ccc2c(c1)c(C(=O)Nc1cc(C(=O)OC(C)(C)C)cc(-c3ccco3)c1)cn2C(C)=O | – | – | – | – | – | – | – | – | – | – | Ratio IC50 (CWR22R [22]): 17; Ratio IC50 (LNCaP [23]): 17; IC50 (LNCaP [9]; [25]): 1.76 µM; IC50 (CWR22R [24]): 4.31 µM
